Data taken from patent publication US9108983B2, “Pyrrole compounds, a process for their preparation and pharmaceutical compositions containing them” (LES LABORATOIRES SERVIER, priority 2013, dated 2015).
Structures can show the parent of a compound that is named as a salt. Where two headings read alike, the source gives them in different places.

Key:
Bcl-2 protein = Bcl-2 protein (histag-Bcl-2, UniProtKB P10415) (Homo sapiens (Human), UniProt P10415); experiment: Inhibition of Bcl-2 by the fluorescence polarisation technique; format: binding; details: incubation for 2 hours, read-out: IC50 (nM) Bcl-2 FP
Bcl-2 protein, sequence (P10415 whole entry): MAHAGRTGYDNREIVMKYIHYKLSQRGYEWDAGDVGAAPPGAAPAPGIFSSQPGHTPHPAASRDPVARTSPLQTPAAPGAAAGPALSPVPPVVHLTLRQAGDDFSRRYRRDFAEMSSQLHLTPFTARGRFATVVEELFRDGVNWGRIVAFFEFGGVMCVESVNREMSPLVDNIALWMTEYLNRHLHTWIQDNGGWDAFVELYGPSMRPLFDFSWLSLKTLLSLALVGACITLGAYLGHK
Procedure, shortened: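 Fluorescence polarisation competition: His-tagged Bcl-2 (2.50×10^−8 M final) with fluorescein-labelled peptide (1.00×10^−8 M final) in 10 mM Hepes, 150 mM NaCl, 0.05% Tween20, pH 7.4. Increasing compound concentrations were added. Polarisation was read after 2 h incubation.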

[1] = test system: RS4;11 leukaemia tumour line; experiment: In vitro cytotoxicity (Microculture Tetrazolium Assay); format: cell-based; details: RS4;11 cells, exposed for 48 hours, cell viability, read-out: IC50 (nM) MTT RS4;11
Method: The cytotoxicity studies were carried out on the RS4;11 leukaemia tumour line.
The cells are distributed onto microplates and exposed to the test compounds for 48 hours.
The cell viability is then quantified by a colorimetric assay, the Microculture Tetrazolium Assay (Cancer Res., 1987, 47, 939-942).

IC50 (Bcl-2 protein) [nM] | SMILES | IC50 ([1]; Homo sapiens, RS4-11, 48 h) [nM] | IC50 (Bcl-2 protein; hydrochloride) [nM] | IC50 ([1]; hydrochloride) [nM]
3.5 | Cc1c(N(C(=O)c2cc(-c3ccc(F)cc3C(=O)N3Cc4ccccc4C[C@H]3CN3CCOCC3)n(C)c2C)c2ccc(O)cc2)cc(C#N)n1C [Example 428, N-(5-Cyano-1,2-dimethyl-1H-pyrrol-3-yl)-5-(4-fluoro-2-{[(3S)-3-(morpholin-4-ylmethyl)-3,4-dihydroisoquinolin-2(1H)-yl]carbonyl}phenyl)-N-(4-hydroxyphenyl)-1,2-dimethyl-1H-pyrrole-3-carboxamide hydrochloride] | 59.2 |  | 
3.1 | COc1cc(-c2cc(C(=O)N(c3ccc(O)cc3)c3cc(C#N)n(C)c3C)c(C)n2C)c(C(=O)N2Cc3ccccc3C[C@H]2CN2CCOCC2)cc1F [Example 429, N-(5-Cyano-1,2-dimethyl-1H-pyrrol-3-yl)-5-(4-fluoro-5-methoxy-2-{[(3S)-3-(morpholin-4-ylmethyl)-3,4-dihydroisoquinolin-2(1H)-yl]carbonyl}phenyl)-N-(4-hydroxyphenyl)-1,2-dimethyl-1H-pyrrole-3-carboxamide hydrochloride] | 109 |  | 
19.9 | Cc1c(C(=O)N(c2ccc(O)cc2)c2cnc3c(ccn3C)c2)cc(-c2cc(Cl)ccc2C(=O)N2Cc3ccccc3CC2C(F)(F)F)n1C (stereo not drawn) [Example 430, 5-(5-Chloro-2-{[3-(trifluoromethyl)-3,4-dihydroisoquinolin-2(1H)-yl]-carbonyl}phenyl)-N-(4-hydroxyphenyl)-1,2-dimethyl-N-(1-methyl-1H-pyrrolo[2,3-b]-pyridin-5-yl)-1H-pyrrole-3-carboxamide] | 328 |  | 
3 | Cc1nn(C)cc1N(C(=O)c1cc(-c2cc(Cl)ccc2C(=O)N2Cc3ccccc3C[C@H]2CN2CCOCC2)n(C)c1C)c1ccc(O)cc1 [Example 431, 5-(5-Chloro-2-{[(3S)-3-(morpholin-4-ylmethyl)-3,4-dihydroisoquinolin-2(1H)-yl]carbonyl}phenyl)-N-(1,3-dimethyl-1H-pyrazol-4-yl)-N-(4-hydroxyphenyl)-1,2-dimethyl-1H-pyrrole-3-carboxamide hydrochloride] | 89 |  | 
3.4 | Cc1c(N(C(=O)c2cc(-c3cc(Cl)ccc3C(=O)N3Cc4ccccc4C[C@H]3CN3CCOCC3)n(C)c2C)c2ccc(O)cc2)cnn1C [Example 432, 5-(5-Chloro-2-{[(3S)-3-(morpholin-4-ylmethyl)-3,4-dihydroisoquinolin-2(1H)-yl]carbonyl}phenyl)-N-(1,5-dimethyl-1H-pyrazol-4-yl)-N-(4-hydroxyphenyl)-1,2-dimethyl-1H-pyrrole-3-carboxamide hydrochloride] | 76.6 |  | 
2.6 | Cc1c(C(=O)N(c2ccc(O)cc2)c2cc(C#N)n(C)c2)cc(-c2ccccc2C(=O)N2Cc3ccccc3C[C@H]2CN2CCOCC2)n1C [Example 433, N-(5-Cyano-1-methyl-1H-pyrrol-3-yl)-N-(4-hydroxyphenyl)-1,2-dimethyl-5-(2-{[(3S)-3-(morpholin-4-ylmethyl)-3,4-dihydroisoquinolin-2(1H)-yl]carbonyl}phenyl)-1H-pyrrole-3-carboxamide hydrochloride] | 48.2 |  | 
3.5 | Cc1c(C(=O)N(c2ccc(O)cc2)c2cnc3c(c2)CCN3C)cc(-c2cc(F)ccc2C(=O)N2Cc3ccccc3C[C@H]2CN2CCOCC2)n1C [Example 434, 5-(5-Fluoro-2-{[(3S)-3-(morpholin-4-ylmethyl)-3,4-dihydroisoquinolin-2(1H)-yl]carbonyl}phenyl)-N-(4-hydroxyphenyl)-1,2-dimethyl-N-(1-methyl-2,3-dihydro-1H-pyrrolo[2,3-b]pyridin-5-yl)-1H-pyrrole-3-carboxamide hydrochloride] | 45.7 |  | 
14.9 | COc1cc(C(=O)N2Cc3ccccc3C[C@H]2CN2CCOCC2)c(-c2cc(C(=O)N(c3ccc(O)cc3)c3cc(C#N)ccn3)c(C)n2C)cc1F [Example 435, N-(4-Cyanopyridin-2-yl)-5-(5-fluoro-4-methoxy-2-{[(3S)-3-(morpholin-4-ylmethyl)-3,4-dihydroisoquinolin-2(1H)-yl]carbonyl}phenyl)-N-(4-hydroxyphenyl)-1,2-dimethyl-1H-pyrrole-3-carboxamide hydrochloride] | 441 |  | 
49.1 | Cc1c(C(=O)N(c2ccc(O)cc2)c2ccc(C#N)s2)cc(-c2cc(Cl)ccc2C(=O)N2Cc3ccccc3C[C@H]2CN2CCOCC2)n1C [Example 436, 5-(5-Chloro-2-{[(3S)-3-(morpholin-4-ylmethyl)-3,4-dihydroisoquinolin-2(1H)-yl]carbonyl}phenyl)-N-(5-cyanothiophen-2-yl)-N-(4-hydroxyphenyl)-1,2-dimethyl-1H-pyrrole-3-carboxamide hydrochloride] | 338 |  | 
4.4 | Cc1c(C(=O)N(c2ccc(O)cc2)c2ccc(F)c(C#N)c2)cc(-c2cc(F)ccc2C(=O)N2Cc3ccccc3C[C@H]2CN2CCOCC2)n1C [Example 437, N-(3-Cyano-4-fluorophenyl)-5-(5-fluoro-2-{[(3S)-3-(morpholin-4-ylmethyl)-3,4-dihydroisoquinolin-2(1H)-yl]carbonyl}phenyl)-N-(4-hydroxyphenyl)-1,2-dimethyl-1H-pyrrole-3-carboxamide hydrochloride] | 70.5 |  | 
11.3 | Cc1c(C(=O)N(c2ccc(O)cc2)c2cnccn2)cc(-c2cc(Cl)ccc2C(=O)N2Cc3ccccc3C[C@H]2CN2CCOCC2)n1C [Example 438, 5-(5-Chloro-2-{[(3S)-3-(morpholin-4-ylmethyl)-3,4-dihydroisoquinolin-2(1H)-yl]carbonyl}phenyl)-N-(4-hydroxyphenyl)-1,2-dimethyl-N-(pyrazin-2-yl)-1H-pyrrole-3-carboxamide hydrochloride] | 379 |  | 
6.1 | COc1ncc(N(C(=O)c2cc(-c3cc(F)c(OC)cc3C(=O)N3Cc4ccccc4C[C@H]3CN3CCOCC3)n(C)c2C)c2ccc(O)cc2)cn1 [Example 439, 5-(5-Fluoro-4-methoxy-2-{[(3S)-3-(morpholin-4-ylmethyl)-3,4-dihydroisoquinolin-2(1H)-yl]carbonyl}phenyl)-N-(4-hydroxyphenyl)-N-(2-methoxypyrimidin-5-yl)-1,2-dimethyl-1H-pyrrole-3-carboxamide hydrochloride] | 329 |  | 
2.6 | COc1cc(C(=O)N2Cc3ccccc3C[C@H]2CN2CCOCC2)c(-c2cc(C(=O)N(c3ccc(O)cc3)c3cc(C#N)n(C)c3C)c(C)n2C)cc1F [Example 440, N-(5-Cyano-1,2-dimethyl-1H-pyrrol-3-yl)-5-(5-fluoro-4-methoxy-2-{[(3S)-3-(morpholin-4-ylmethyl)-3,4-dihydroisoquinolin-2(1H)-yl]carbonyl}phenyl)-N-(4-hydroxyphenyl)-1,2-dimethyl-1H-pyrrole-3-carboxamide hydrochloride] | 13.6 |  | 
3.5 | Cc1c(N(C(=O)c2cc(-c3cc(Cl)ccc3C(=O)N3Cc4ccccc4C[C@H]3CN3CCOCC3)n(C)c2C)c2ccccc2)cc(C#N)n1C [Example 441, 5-(5-Chloro-2-{[(3S)-3-(morpholin-4-ylmethyl)-3,4-dihydroisoquinolin-2(1H)-yl]carbonyl}phenyl)-N-(5-cyano-1,2-dimethyl-1H-pyrrol-3-yl)-1,2-dimethyl-N-phenyl-1H-pyrrole-3-carboxamide hydrochloride] | 132 |  | 
3 | Cc1c(C(=O)N(c2ccc(O)cc2)c2csc(C#N)c2)cc(-c2cc(Cl)ccc2C(=O)N2Cc3ccccc3C[C@H]2CN2CCOCC2)n1C [Example 442, 5-(5-Chloro-2-{[(3S)-3-(morpholin-4-ylmethyl)-3,4-dihydroisoquinolin-2(1H)-yl]carbonyl}phenyl)-N-(5-cyanothiophen-3-yl)-N-(4-hydroxyphenyl)-1,2-dimethyl-1H-pyrrole-3-carboxamide hydrochloride] | 42.8 |  | 
5.5 | COc1cnc(N(C(=O)c2cc(-c3cc(Cl)ccc3C(=O)N3Cc4ccccc4C[C@H]3CN3CCOCC3)n(C)c2C)c2ccc(O)cc2)cn1 [Example 444, 5-(5-Chloro-2-{[(3S)-3-(morpholin-4-ylmethyl)-3,4-dihydroisoquinolin-2(1H)-yl]carbonyl}phenyl)-N-(4-hydroxyphenyl)-N-(5-methoxypyrazin-2-yl)-1,2-dimethyl-1H-pyrrole-3-carboxamide hydrochloride] | 181 |  | 
 | Cc1c(C(=O)N(c2ccc(O)cc2)c2cnc3c(c2)CCN3C)cc(-c2cc(Cl)ccc2C(=O)N2Cc3ccccc3C[C@H]2CN2CCOCC2)n1C [Example 445, 5-(5-Chloro-2-{[(3S)-3-(morpholin-4-ylmethyl)-3,4-dihydroisoquinolin-2(1H)-yl]carbonyl}phenyl)-N-(4-hydroxyphenyl)-1,2-dimethyl-N-[1-(trideuteriomethyl)-2,3-dihydro-H-pyrrolo[2,3-b]pyridin-5-yl]-1H-pyrrole-3-carboxamide hydrochloride] |  | 2 | 19
7.8 | Cc1c(C(=O)N(c2ccc(O)cc2)c2cnc(F)cn2)cc(-c2cc(Cl)ccc2C(=O)N2Cc3ccccc3C[C@H]2CN2CCOCC2)n1C [Example 446, 5-(5-Chloro-2-{[(3S)-3-(morpholin-4-ylmethyl)-3,4-dihydroisoquinolin-2(1H)-yl]carbonyl}phenyl)-N-(5-fluoropyrazin-2-yl)-N-(4-hydroxyphenyl)-1,2-dimethyl-1H-pyrrole-3-carboxamide hydrochloride] | 249 |  | 
